# Measurements reported in patent US20250145639A1, “MUTANT KRAS MODULATORS AND USES THEREOF” (NEWAVE PHARMACEUTICAL INC., priority 2021, published 2025).
# What was measured:
# [1] = target: T1, HIS-KRAS (G12C, aa 2-185) (Homo sapiens, UniProt P01116, G12C); assay: KRas G12C binding assay (TR-FRET, SOS1-mediated BODIPY FL GTP nucleotide exchange); conditions: GDP-loaded HIS-KRAS (G12C) 3 nM, 1 hour pre-incubation with compound, 4 hours with SOS1 ExD and BODIPY FL GTP at 25° C
# T1 construct: HIS-KRAS (G12C, aa 2-185, Sino biological); purchased Sino biological
# T1 sequence (P01116 2-185 isoform P01116-2 G12C): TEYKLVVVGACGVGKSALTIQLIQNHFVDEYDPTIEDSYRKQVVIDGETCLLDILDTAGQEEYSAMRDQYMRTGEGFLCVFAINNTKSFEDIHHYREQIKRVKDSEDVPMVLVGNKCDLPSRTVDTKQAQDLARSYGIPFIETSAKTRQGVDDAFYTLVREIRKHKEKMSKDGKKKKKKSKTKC
# Experimental: Biological Example 1: KRas G12C Binding Assay
# (§1) HIS-KRAS (G12C, aa 2-185, Sino biological) was diluted to 5 uM in EDTA buffer (20 mM HEPES, pH 7.4, 50 mM NaCl, 10 mM EDTA, 0.01% (v/v) Tween-20) and incubated for 30 min at 25° C. The EDTA pretreated HIS-KRAS (G12C) was diluted to 12 nM in assay buffer (25 mM HEPES, pH 7.4, 120 mM NaCl, 5 mM MgCl 2, 1 mM DTT, 0.01% (v/v) Tween 20, 0.1% (w/v) BSA) containing 120 nM GDP (Sigma) and MAb Anti 6HIS—Tb cryptate Gold (Cisbio) and incubated for 1 hour at 25° C. to prepare GDP-loaded HIS-KRAS (G12C). The GDP-loaded HIS-KRAS (G12C) was pre-incubation with diluted compounds in a 384-well plate (Greiner) for 1 hour, then purified SOS1 ExD (Flag tag, aa 564-1049) and BODIPY™ FL GTP (Invitrogen) were added to the assay wells (Final concentration: 3 nM HIS-KRAS (G12C), 2 uM SOS1 ExD, 80 nM BODIPY™ FL GTP, 21 ng/mL MAb Anti 6HIS—Tb cryptate Gold) and incubated for 4 hours at 25° C. TR-FRET signals were then read on Tecan Spark multimode microplate reader. The parameters were F486: Excitation 340 (35) nm, Emission 486 (10) nm, Lag time 100 μs, Integration time 200 μs; F515: Excitation 340 (35) nm, Emission 515 (10) nm, Lag time 100 μs, Integration time 200 μs. TR-FRET ratios for each individual wells were calculated by equation: TR-FRET ratio=(Signal F515/Signal F486)*10000. Then the data were analyzed using a 4-parameter logistic model to calculate IC50 values. The following table lists the IC50 values of certain compounds of the invention.
# [2] = target: T2, GDP-loaded, histidine-tagged, truncated (1-169) KRAS G12C (Homo sapiens, UniProt P01116, G12C); assay: KRas G12C in vitro covalent MS-based assay; format: binding; conditions: KRAS protein 2 uM, denaturing SEC-MS intact mass
# T2 construct: histidine-tagged, truncated (1-169) KRAS proteins; His
# T2 sequence (P01116 1-169 isoform P01116-2 G12C): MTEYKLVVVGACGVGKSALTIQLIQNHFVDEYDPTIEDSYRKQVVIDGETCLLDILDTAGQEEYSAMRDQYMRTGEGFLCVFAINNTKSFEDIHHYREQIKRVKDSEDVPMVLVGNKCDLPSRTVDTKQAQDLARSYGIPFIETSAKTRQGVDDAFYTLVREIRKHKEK
# Experimental: Biological Example 2: KRas G12C In Vitro Covalent MS-Based Assay
# GDP-loaded, histidine-tagged, truncated (1-169) KRAS proteins (G12C, WT, G13D, as indicated) at 2 uM final concentration were incubated with the test compounds at the doses and time points indicated in a buffer containing 20 mmol/L HEPES pH 7.5, 150 mmol/L NaCl, 1 mmol/L MgCl 2, and 1 mmol/L DTT. Reactions were quenched by adding formic acid to 0.2%. Samples were buffer exchanged and analyzed by denaturing SEC-MS (Orbitrap Eclipse), Mobile phase: 30% ACN, 0.1% formic acid, 0.02% TFA. Raw data were analyzed by charge state deconvolution with BioPharma Finder 4.1 Intact Mass, ReSpect and Sliding Window algorithms. The masses were calculated via software for KRAS_G12C theoretical sequence and experimental compounds.
# [3] = target: HIS-KRAS (G12V) (Homo sapiens, UniProt P01116, G12V); assay: KRas G12V binding assay (TR-FRET, SOS1-mediated BODIPY FL GTP nucleotide exchange); conditions: GDP-loaded HIS-KRAS (G12V) 3 nM, 1 hour pre-incubation with compound, 4 hours with SOS1 ExD and BODIPY FL GTP at 25° C
# HIS-KRAS (G12V), sequence (P01116 1-188 isoform P01116-2 G12V): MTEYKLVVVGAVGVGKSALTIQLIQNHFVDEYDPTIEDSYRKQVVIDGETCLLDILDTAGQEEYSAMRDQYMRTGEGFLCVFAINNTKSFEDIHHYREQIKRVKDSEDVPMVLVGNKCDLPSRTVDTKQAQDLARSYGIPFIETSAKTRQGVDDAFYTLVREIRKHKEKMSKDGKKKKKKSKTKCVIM
# Experimental: Biological Example 3: KRas G12V Binding Assay
# as §1, with “(G12V)” for “(G12C, aa 2-185, Sino biological)”, “(G12V)” for “(G12C)”, “(G12V).” for “(G12C).”, “(G12V),” for “(G12C),”
Structure (SMILES),IC50 [1] [nM],Binding Model [2],IC50 [3] [nM]
"C#Cc1c(F)ccc2cc(O)cc(-c3ncc4c(N(C)C[C@@H]5CCCN5C(=O)C=C)nc(OC[C@@]56CCCN5C[C@H](F)C6)nc4c3F)c12 [Example 2, 1-[(2S)-2-{[(2-{[(2R,7aS)-2-fluoro-hexahydropyrrolizin-7a-yl]methoxy}-7-(8-ethynyl-7-fluoro-3-hydroxynaphthalen-1-yl)-8-fluoropyrido[4,3-d]pyrimidin-4-yl)(methyl)amino]methyl}pyrrolidin-1-yl]prop-2-en-1-one]",0.41,Covalent binding,0.54
"C#Cc1c(F)ccc2cc(O)cc(-c3ncc4c(N5C[C@H]6CC[C@@H](C5)N6C(=O)C=C)nc(OC[C@]5(C)C[C@@H](F)CN5C)nc4c3F)c12 [Example 13, 1-((1R,5S)-3-(7-(8-ethynyl-7-fluoro-3-hydroxynaphthalen-1-yl)-8-fluoro-2-(((2S,4R)-4-fluoro-1,2-dimethylpyrrolidin-2-yl)methoxy)pyrido[4,3-d]pyrimidin-4-yl)-3,8-diazabicyclo[3.2.1]octan-8-yl)prop-2-en-1-one]",0.96,,13.7
"C#Cc1c(F)ccc2cc(O)cc(-c3ncc4c(N5C[C@H]6CC[C@@H](C5)N6C(=O)C=C)nc(OC[C@@H]5CCCCN5C)nc4c3F)c12 [Example 7, 1-((1R,5S)-3-(7-(8-ethynyl-7-fluoro-3-hydroxynaphthalen-1-yl)-8-fluoro-2-(((S)-1-methylpiperidin-2-yl)methoxy)pyrido[4,3-d]pyrimidin-4-yl)-3,8-diazabicyclo[3.2.1]octan-8-yl)prop-2-en-1-one]",0.41,,5.87
"C#Cc1c(F)ccc2cc(O)cc(-c3ncc4c(N5C[C@H]6CC[C@@H](C5)N6C(=O)C=C)nc(OC[C@@]5(C)C[C@@H](F)CN5C)nc4c3F)c12 [Example 14, 1-((1R,5S)-3-(7-(8-ethynyl-7-fluoro-3-hydroxynaphthalen-1-yl)-8-fluoro-2-(((2R,4R)-4-fluoro-1,2-dimethylpyrrolidin-2-yl)methoxy)pyrido[4,3-d]pyrimidin-4-yl)-3,8-diazabicyclo[3.2.1]octan-8-yl)prop-2-en-1-one]",0.99,,
"C#Cc1c(F)ccc2cc(O)cc(-c3ncc4c(N5CCCC[C@@H](NC(=O)C=C)C5)nc(OCC56CCCN5CCC6)nc4c3F)c12 [Example 8, N-[(3R)-1-[7-(8-ethynyl-7-fluoro-3-hydroxynaphthalen-1-yl)-8-fluoro-2-(hexahydropyrrolizin-7a-ylmethoxy)pyrido[4,3-d]pyrimidin-4-yl]azepan-3-yl]prop-2-enamide]",7.11,Covalent binding,22.9
"C#Cc1c(F)ccc2cc(O)cc(-c3ncc4c(N5C[C@H]6CC[C@@H](C5)N6C(=O)C=C)nc(OC[C@@H]5CCCN5C)nc4c3F)c12 [Example 6, 1-((1R,5S)-3-(7-(8-ethynyl-7-fluoro-3-hydroxynaphthalen-1-yl)-8-fluoro-2-(((S)-1-methylpyrrolidin-2-yl)methoxy)pyrido[4,3-d]pyrimidin-4-yl)-3,8-diazabicyclo[3.2.1]octan-8-yl)prop-2-en-1-one]",0.36,,0.38
"C#Cc1c(F)ccc2cc(O)cc(-c3ncc4c(NCC5(N(C)C(=O)C=C)CCCC5)nc(OCC56CCCN5CCC6)nc4c3F)c12 [Example 11, N-(1-(((7-(8-ethynyl-7-fluoro-3-hydroxynaphthalen-1-yl)-8-fluoro-2-((tetrahydro-1H-pyrrolizin-7a(5H)-yl)methoxy)pyrido[4,3-d]pyrimidin-4-yl)amino)methyl)cyclopentyl)-N-methylacrylamide]",1.6,,3.5
"C#Cc1c(F)ccc2cccc(-c3ncc4c(N5C[C@H]6CC[C@@H](C5)N6C(=O)C=C)nc(OCC56CCCN5CCC6)nc4c3F)c12 [Example 3, 1-((1R,5S)-3-(7-(8-ethynyl-7-fluoronaphthalen-1-yl)-8-fluoro-2-((tetrahydro-1H-pyrrolizin-7a(5H)-yl)methoxy)pyrido[4,3-d]pyrimidin-4-yl)-3,8-diazabicyclo[3.2.1]octan-8-yl)prop-2-en-1-one]",3.19,,39.1
"C#Cc1c(F)ccc2cc(O)cc(-c3ncc4c(N5C[C@H]6CC[C@@H](C5)N6C(=O)C=C)nc(OC[C@]5(C)CCCN5C)nc4c3F)c12 [Example 12, 1-((1R,5S)-3-(2-(((S)-1,2-dimethylpyrrolidin-2-yl)methoxy)-7-(8-ethynyl-7-fluoro-3-hydroxynaphthalen-1-yl)-8-fluoropyrido[4,3-d]pyrimidin-4-yl)-3,8-diazabicyclo[3.2.1]octan-8-yl)prop-2-en-1-one]",1.5,,49.7
"C#Cc1c(F)ccc2cc(O)cc(-c3ncc4c(N5C[C@H]6CC[C@@H](C5)N6C(=O)C=C)nc(N5CC(N(C)C)C5)nc4c3F)c12 [Example 4, 1-((1R,5S)-3-(2-(3-(dimethylamino)azetidin-1-yl)-7-(8-ethynyl-7-fluoro-3-hydroxynaphthalen-1-yl)-8-fluoropyrido[4,3-d]pyrimidin-4-yl)-3,8-diazabicyclo[3.2.1]octan-8-yl)prop-2-en-1-one]",3.34,,95.8
"C#Cc1c(F)ccc2cc(O)cc(-c3ncc4c(NCC5(N(C)C(=O)C=C)CCC5)nc(OCC56CCCN5CCC6)nc4c3F)c12 [Example 10, N-(1-(((7-(8-ethynyl-7-fluoro-3-hydroxynaphthalen-1-yl)-8-fluoro-2-((tetrahydro-1H-pyrrolizin-7a(5H)-yl)methoxy)pyrido[4,3-d]pyrimidin-4-yl)amino)methyl)cyclobutyl)-N-methylacrylamide]",2.7,,5.1
"C#Cc1cccc2cc(O)cc(-c3ncc4c(N5CC6CCC(C5)N6C(=O)C=C)nc(OC[C@@]56CCCN5C[C@H](F)C6)nc4c3F)c12 [Example 1, 1-[3-(2-{[(2R,7aS)-2-fluoro-hexahydropyrrolizin-7a-yl]methoxy}-7-(8-ethynyl-3-hydroxynaphthalen-1-yl)-8-fluoropyrido[4,3-d]pyrimidin-4-yl)-3,8-diazabicyclo[3.2.1]octan-8-yl]prop-2-en-1-one]",10.6,,4.37
